Experimental data from paper PMC4567266 (PLoS ONE, 2015).

Experiments:
Format in all cases: cell-based
[1] = system: L929 (a mouse fibroblast cell line); test: Cell proliferation assay (WST-8), L929; details: for IC50: means ± range (n = 2) or standard deviation (n > 2), DMSO less than 1%
Description: (§1) We used THP-1 (a human monocytic leukemia cell line), L929 (a mouse fibroblast cell line), RAW264.7 (a mouse macrophage cell line), and mouse bone marrow-derived macrophages cultured in a flask or plate at 37°C, under a humidified atmosphere of 5% CO2 in air. THP-1 and L929 were obtained from Japan Health Science Foundation. RAW264.7 was purchased from DS Pharma Biomedical Co., Ltd. These cells were cultured in RPMI1640 + 10% FCS consisting of RPMI1640 [+] L-glutamine (Gibco) supplemented with antibiotics (penicillin and streptomycin; Gibco) and 10% fetal calf serum (FCS; Biowest). In cell proliferation assays, they were cultured in flat-bottomed 96-well plates (Corning) in 100 μl/well at a concentration of 1 x 10^5/ml with or without test samples. In the case of mouse peritoneal cells, we employed 1 x 10^6/ml as a cell concentration. After finishing the culture, we added 10 μl of a coloring reagent, WST-8 (Kishida Chemical Co.), which converts to water-soluble colored formazan by the action of a mitochondrial enzyme. Cells were additionally incubated with WST-8 for 3 h and the coloring reaction was stopped by adding 10 μl of 0.1% sodium dodecyl sulfate (SDS) solution. The absorbance of each well was then measured at 450 nm with a Multiskan Ascent plate reader (Labsystems). In principle, we performed cell proliferation assays in duplicate. Half-maximal (50%) inhibitory concentration (IC50) of each test sample was calculated according to the reported formula [15].
(§2) We examined the inhibitory activities of food constituents in cell proliferation assays. Test compounds used in the assays were as follows: curcumin (Wako or Sigma-Aldrich), zerumbone (Wako), genistein (Sigma-Aldrich), chalcone (Wako), corosolic acid (Wako), carnosol (Wako), ursolic acid (Wako), epigallocatechin (Sigma-Aldrich), isoflavone (Wako), apigenin (Wako), chrysin (Wako), flavanone (Wako), resveratrol (Wako), flavone (Wako), quercetin (Wako), daidzein (Wako), and clodronate (Sigma-Aldrich). These compounds were firstly dissolved with dimethyl sulfoxide (DMSO; Wako) and then appropriately diluted with RPMI1640 + 10% FCS to apply the assays. The final concentration of DMSO was adjusted not to exceed 1% at most in cell cultures.

[2] = system: mouse bone marrow-derived macrophages; test: Cell proliferation assay (WST-8), mouse bone marrow-derived macrophages; details: for IC50: means ± range (n = 2) or standard deviation (n > 2), DMSO less than 1%
Description: as §1, §2

[3] = system: THP-1 (a human monocytic leukemia cell line); test: Cell proliferation assay (WST-8), THP-1; details: for IC50: DMSO less than 1%
Description: as §1, §2

[4] = system: RAW264.7 (a mouse macrophage cell line); test: Cell proliferation assay (WST-8), RAW264.7; details: cultured for 3 days
Description: as §1, with “In the case of mouse peritoneal cells, we employed 1 x 10^6/ml as a cell concentration. After finishing the culture, we added 10 μl of a coloring reagent, WST-8 (Kishida Chemical Co.), which converts to water-soluble colored formazan by the action of a mitochondrial enzyme. Cells were additionally incubated with WST-8 for 3 h and the coloring reaction was stopped by adding 10 μl of 0.1% sodium dodecyl sulfate (SDS) solution.” left out, “In principle, we performed cell proliferation assays in duplicate.” left out
After culturing, they were incubated with WST-8 for 3 h to assess viable cells in the culture. Resultant coloring reaction by WST-8 was measured with a plate-reader at the absorbance of 450 nm. In the vertical axis, the absorbance of only the medium was defined as 0%. Symbols in the Figure represent the percentage of absorbance with curucmin or liposomes to that without the test samples. […]

[5] = Homo sapiens, THP-1, means ± range (n = 2) or standard deviation (n > 2)
[6] = means ± range (n = 2) or standard deviation (n > 2)

| IC50 [3, 5] [µM] | IC50 [3, 6] [µM] | SMILES | IC50 ([1]; Mus musculus, L929) [µM] | IC50 ([2]; Mus musculus, Macrophage) [µM] | also measured |
| --- | --- | --- | --- | --- | --- |
| 37.9 ± 3.9 |  | O=c1cc(-c2ccc(O)cc2)oc2cc(O)cc(O)c12 [Apigenin, apigenin] | 46.4 ± 3.3 | 70 ± 19.8 |  |
| < 30 | 20.5 ± 2.7 | CC(C)c1cc2c(c(O)c1O)[C@@]13CCCC(C)(C)[C@@H]1C[C@@H]2OC3=O [Carnosol, carnosol] | 50.1 ± 2.6 | 63.8 ± 5.5 |  |
| < 30 | 17.4 ± 1.8 | O=C(/C=C/c1ccccc1)c1ccccc1 [Chalcone, chalcone] | 69.5 ± 1.2 | 104 |  |
| 46.8 ± 2.8 |  | O=c1cc(-c2ccccc2)oc2cc(O)cc(O)c12 [Chrysine, chrysin] | 76.3 ± 11 | 58.2 |  |
| > 400 |  | O=P(O)(O)C(Cl)(Cl)P(=O)(O)O [Clodronate, clodronate, reference compound] | 336 ± 54.9 | 25.7 ± 15.6 | Inhibition of L929 cell proliferation (in words) [1]: weaker activity; Inhibition of mouse bone marrow-derived macrophage proliferation (in words) [2]: comparable strong activity; Inhibition of THP-1 cell proliferation (in words) [3]: weaker activity |
| < 30 | 18.2 ± 0.2 | C[C@H]1[C@H](C)CC[C@]2(C(=O)O)CC[C@]3(C)C(=CC[C@@H]4[C@@]5(C)C[C@@H](O)[C@H](O)C(C)(C)[C@@H]5CC[C@]43C)[C@H]12 [Corosolic acid, corosolic acid] | 17.7 ± 0.2 | 19.6 ± 0.6 |  |
|  | 13 ± 3.2 | COc1cc(/C=C/C(=O)CC(=O)/C=C/c2ccc(O)c(OC)c2)ccc1O [Curcumin, diferuloylmethane] | 22.8 ± 10.8 | 22.4 ± 3.6 | Inhibition of THP-1 cell proliferation (in words) [3]: dose-dependent inhibition; IC50 ([3]; means ± range (n = 2) or standard deviation (n > 2), listed as curcumin): < 30 µM; Inhibition of RAW264.7 cell proliferation (in words) [4]: dose-dependent inhibition |
| > 400 |  | O=c1c(-c2ccc(O)cc2)coc2cc(O)ccc12 [Daidzein, daidzein] | 220 ± 57.9 | 65.1 ± 33.5 |  |
|  | 55.1 ± 10.9 | O=C1CC(c2ccccc2)Oc2ccccc21 (stereo not drawn) [Flavanone, flavanone] |  |  | IC50 [1]: 211 ± 29.6 µM; IC50 [2]: 225 ± 66.1 µM |
| 86.9 ± 4.1 |  | O=c1cc(-c2ccccc2)oc2ccccc12 [Flavone, flavone] | 34.5 ± 3.4 | 180 |  |
| < 30 | 16 ± 6.1 | O=c1c(-c2ccc(O)cc2)coc2cc(O)cc(O)c12 [Genistein, genistein] | 28.2 ± 7.5 | 29 ± 21.5 |  |
| 37.6 ± 11.6 |  | O=c1c(-c2ccccc2)coc2ccccc12 [Isoflavone, isoflavone] | 65.5 ± 3.6 | 106 ± 7.8 |  |
| 125 ± 24.1 |  | O=c1c(O)c(-c2ccc(O)c(O)c2)oc2cc(O)cc(O)c12 [Quercetin, quercetin] | 117 ± 32.5 | 126 ± 83.4 |  |
| 64.6 ± 8.5 |  | Oc1ccc(/C=C/c2cc(O)cc(O)c2)cc1 [Resveratrol, resveratrol] | 84.8 ± 29.1 | 77.2 ± 13 |  |
| < 30 | 24.6 ± 3.4 | C[C@H]1[C@H](C)CC[C@]2(C(=O)O)CC[C@]3(C)C(=CC[C@@H]4[C@@]5(C)CC[C@H](O)C(C)(C)[C@@H]5CC[C@]43C)[C@H]12 [Ursolic acid, ursolic acid] | 30.7 ± 0.8 | 16.3 ± 4.5 |  |
| < 30 | 16 ± 0.5 | C/C1=C\CC(C)(C)/C=C/C(=O)/C(C)=C/CC1 [Zerumbone, zerumbone] | 30.4 ± 0.1 | 32.1 |  |

| SMILES | IC50 [3, 5] [µM] | IC50 [3, 6] [µM] | IC50 ([1]; Mus musculus, L929) [µM] | IC50 ([2]; Mus musculus, Macrophage) [µM] | also measured |
| --- | --- | --- | --- | --- | --- |
| Oc1cc(O)c2c(c1)O[C@H](c1cc(O)c(O)c(O)c1)[C@H](O)C2 [Epigallocatechin, epigallocatechin] | 37 ± 29.6 |  | 40.1 ± 3.7 | 157 ± 19.9 |  |
